Laboratory results as given in the supplement of paper PMC10307832.

Tests used:
Test in all cases: relative viability (nuclei count vs DMSO), 5 days (fraction); higher = more cells survive
[1] = compound: COC1=C(C=C(C=C1)C2=CC3=NC=CN3C(=N2)NC4=C(C=CC=N4)C(=O)N)OC [BAY61-3606] + Nc1ncn([C@H]2C[C@H](O)[C@@H](CO)O2)c(=O)n1 [Decitabine] (partner 2 µM)
Outline: (§1)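 For relative viability, nuclei counts in treated wells were divided by those in vehicle wells. Lung cancer cell lines had been pin-tool dosed in 1536-well plates the day after seeding and cultured for 5 days, then fixed and stained in one step (final 0.05% Triton X-100, 1% formaldehyde, 1 ug/ml Hoechst) and imaged at 4×. Doses were one drug alone or a fixed anchor-drug dose plus five library-drug doses (not always all listed) in √10 steps, and values are duplicate-plate medians.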

[2] = compound: COC1=C(C=C(C=C1)C2=CC3=NC=CN3C(=N2)NC4=C(C=CC=N4)C(=O)N)OC [BAY61-3606] + N=C(N)NC(=N)NCCc1ccccc1 [Phenformin] (partner 250 µM)
Outline: as §1

[3] = compound: COC1=C(C=C(C=C1)C2=CC3=NC=CN3C(=N2)NC4=C(C=CC=N4)C(=O)N)OC [BAY61-3606] + CC(=O)Nc1cccc(-n2c(=O)n(C3CC3)c(=O)c3c(Nc4ccc(I)cc4F)n(C)c(=O)c(C)c32)c1 [Trametinib] (partner 0.02 µM)
Outline: as §1

[4] = compound: COc1cccc2c1C(=O)c1c(O)c3c(c(O)c1C2=O)C[C@@](O)(C(=O)CO)C[C@@H]3O[C@H]1C[C@H](N)[C@H](O)[C@H](C)O1 [Doxorubicin] + CC1(C)CCC(c2ccc(Cl)cc2)=C(CN2CCN(c3ccc(C(=O)NS(=O)(=O)c4ccc(N[C@H](CCN5CCOCC5)CSc5ccccc5)c(S(=O)(=O)C(F)(F)F)c4)cc3)CC2)C1 [Navitoclax] (partner 0.5 µM)
Outline: as §1

Cell Line	relative viability ([1]; first compound 0.02 µM)	relative viability ([1]; first compound 0.06325 µM)	relative viability ([1]; first compound 0.2 µM)	relative viability ([1]; first compound 0.6325 µM)	relative viability ([1]; first compound 2 µM)	relative viability ([2]; first compound 0.02 µM)	relative viability ([2]; first compound 0.06325 µM)	relative viability ([2]; first compound 0.2 µM)	relative viability ([2]; first compound 0.6325 µM)	relative viability ([2]; first compound 2 µM)	relative viability ([3]; first compound 0.02 µM)	relative viability ([3]; first compound 0.06325 µM)	relative viability ([3]; first compound 0.2 µM)	relative viability ([3]; first compound 0.6325 µM)	relative viability ([3]; first compound 2 µM)	relative viability ([4]; first compound 0.001 µM)	relative viability ([4]; first compound 0.003162 µM)	relative viability ([4]; first compound 0.01 µM)	relative viability ([4]; first compound 0.03162 µM)	relative viability ([4]; first compound 0.1 µM)
NCI-H2342	0.81	0.853	0.78	0.78	0.831	0.629	0.65	0.535	0.586	0.662	0.899	0.912	0.855	0.712	0.953	–	–	–	–	–
HCC-15	0.575	0.569	0.583	0.65	0.6	0.474	0.457	0.458	0.474	0.454	0.425	0.375	0.385	0.382	0.423	0.707	0.716	0.705	0.665	0.634
A-427	0.579	0.561	0.565	0.611	0.622	0.417	0.235	0.287	0.315	0.257	0.902	0.755	0.782	0.798	0.817	1	0.978	0.966	0.983	1.05
NCI-H2347	0.731	0.63	0.599	0.698	0.666	0.563	0.359	0.544	0.455	0.538	0.287	0.332	0.285	0.296	0.244	0.628	0.768	0.77	0.71	0.85
NCI-H1755	0.671	0.666	0.656	0.673	0.773	0.666	0.6	0.578	0.656	0.59	0.768	0.853	0.792	0.769	0.762	1	1.03	0.927	0.991	1.02
SK-LU-1	0.715	0.725	0.575	0.621	0.428	0.563	0.451	0.569	0.506	0.284	0.562	0.512	0.482	0.532	0.406	0.811	0.631	0.806	0.301	0.218
NCI-H1975	0.394	0.416	0.438	0.421	0.271	0.41	0.413	0.412	0.394	0.301	0.409	0.295	0.354	0.325	0.254	1.2	1.22	1.06	0.791	0.569
NCI-H1703	–	–	–	–	–	–	–	–	–	–	–	–	–	–	–	0.735	0.902	0.386	0.195	0.14
HCC-44	0.939	0.926	0.931	0.911	0.957	0.189	0.134	0.141	0.251	0.182	1.04	1.09	1	1.07	1.2	1.01	1.15	0.969	1.01	1.03
NCI-H1793	0.504	0.501	0.558	0.539	0.651	0.363	0.216	–	0.41	0.271	0.445	0.414	0.449	0.437	0.478	–	0.448	0.393	0.478	0.547
NCI-H596	1.06	0.967	1.14	0.965	1.08	0.803	0.806	0.793	0.793	0.737	0.879	0.793	0.701	1.01	0.696	0.931	0.963	0.903	0.832	0.972
PC-3 [JPC-3]	0.822	0.711	0.848	0.947	0.781	–	0.491	0.476	0.454	0.463	0.772	0.668	0.741	0.726	0.654	0.746	0.79	0.703	0.802	0.819
HCC-366	0.379	0.433	0.396	0.354	0.296	0.642	0.512	0.613	0.565	0.504	0.345	0.319	0.327	0.268	0.21	–	1.03	0.99	0.809	1.07
NCI-H1623	–	–	–	–	–	0.58	0.522	0.588	0.58	0.588	–	–	–	–	–	–	–	–	–	–
Calu-6	–	–	–	–	–	–	–	–	–	–	–	–	–	–	–	0.835	0.91	0.581	0.24	0.113
LCLC-103H	0.773	0.707	0.75	0.748	0.773	0.342	0.328	0.297	0.328	0.352	0.708	0.715	0.666	0.654	0.65	–	–	–	–	–
